{
  "source": "patent US7994190B2",
  "about": "“Modulators of glucocorticoid receptor, AP-1, and/or NF-κB activity and use thereof” (Bristol-Myers Squibb Company, priority 2006, dated 2011)",
  "key": {"AP-1": {"system": "AP-1", "assay": "Cellular Transrepressional Assay (AP-1 luciferase reporter in A549 cells)", "type": "cell-based", "settings": "A549 cell stably transfected with pAP-1-Luc, 10 ng/ml PMA, 7 hours; for AP-1 Max % inh (Cellular Transrepression Assay): maximum inhibition; for EC50: read-out: AP-1 EC50, nM (Cellular Transrepression Assay)", "experimental": "Cellular Transrepressional Assay\nTo measure the ability of test molecules to inhibit AP-1 induced transcriptional activity, an A549 cell was utilized which was stably transfected with a plasmid containing 7×AP-1 DNA binding sites (pAP-1-Luc plasmid, Stratagene Co. La Jolla, Calif.) followed by the gene for luciferase. Cells were activated with 10 ng/ml of […] (PMA) plus or minus test molecules for 7 hours. After 7 hours a luciferase reagent was added to measure luciferase enzymatic activity in the cell. After a 10 minute incubation of luciferase reagent with cells, luminescence was measured in a TopCount luminescence counter. Repression of AP-1 activity was calculated as the percentage decrease in the signal induced by PMA alone. Test molecules were analyzed in the concentration range from 0.1 nM to 40 μM. EC50s were determined by using standard curve fitting methods such as Excel fit (Microsoft Co.)."}, "[1]": {"target": "T1, human glucocorticoid receptor (Homo sapiens, UniProt P04150)", "T1 construct": "purified human recombinant full-length glucocorticoid receptor (2 nM); purchased Invitrogen Part #2893", "T1 sequence (P04150 1-777)": "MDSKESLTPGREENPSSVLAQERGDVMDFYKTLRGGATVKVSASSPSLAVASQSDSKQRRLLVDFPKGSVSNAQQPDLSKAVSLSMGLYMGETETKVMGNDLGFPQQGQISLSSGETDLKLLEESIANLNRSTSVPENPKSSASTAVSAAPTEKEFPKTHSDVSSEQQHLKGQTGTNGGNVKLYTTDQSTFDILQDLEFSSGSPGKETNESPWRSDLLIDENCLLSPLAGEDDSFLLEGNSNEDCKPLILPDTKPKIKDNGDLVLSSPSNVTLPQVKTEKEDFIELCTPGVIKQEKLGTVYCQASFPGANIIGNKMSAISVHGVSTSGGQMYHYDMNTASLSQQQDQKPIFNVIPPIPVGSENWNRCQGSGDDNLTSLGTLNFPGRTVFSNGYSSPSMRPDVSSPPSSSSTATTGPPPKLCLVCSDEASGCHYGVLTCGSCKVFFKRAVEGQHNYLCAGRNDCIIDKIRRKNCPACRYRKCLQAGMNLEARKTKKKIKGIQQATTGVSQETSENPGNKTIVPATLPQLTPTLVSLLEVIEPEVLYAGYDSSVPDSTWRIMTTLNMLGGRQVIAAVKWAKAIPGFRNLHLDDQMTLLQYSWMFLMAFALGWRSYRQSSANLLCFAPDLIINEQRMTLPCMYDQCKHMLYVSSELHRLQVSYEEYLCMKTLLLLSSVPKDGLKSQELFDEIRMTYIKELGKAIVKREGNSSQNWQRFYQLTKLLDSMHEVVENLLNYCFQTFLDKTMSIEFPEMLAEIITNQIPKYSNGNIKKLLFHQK", "assay": "Glucocorticoid Receptor Binding Assay (fluorescence polarization competitor kit)", "settings": "purified human recombinant full-length GR 2 nM, 1 nM Fluormone GS Red, 2 h room temperature", "experimental": "Glucocorticoid Receptor Binding Assay\nIn order to assess the affinity of test compounds for the human glucocorticoid receptor, a commercially available kit was used (Glucocorticoid Receptor Competitor Assay Kit, Invitrogen Part #2893). Briefly, purified human recombinant full-length glucocorticoid receptor (2 nM) was mixed with fluorescently labeled glucocorticoid (1 nM Fluormone GS Red) in the presence or absence of test compound. After two hour incubation at room temperature in the dark, the fluorescence polarization (FP) of the samples was measured. […] Test compounds were analyzed in the concentration range from 8.5E-05 μM to 5 μM."}},
  "data": [
    {"smiles": "CC(C)(C(=O)Nc1nncs1)C(c1ccccc1)c1ccn2c(-c3ccccc3)ncc2c1", "note": "(stereo not shown) [Example 1, 2,2-Dimethyl-3-phenyl-3-(3-phenylH-imidazo[1,5-a]pyridin-7-yl)-N-(1,3,4-thiadiazol-2-yl)propanamide]", "values": [
      {"measurement": "AP-1 Max % inh (Cellular Transrepression Assay)", "setting": "AP-1", "result": 63.58, "unit": "%"},
      {"measurement": "EC50", "setting": "AP-1", "result": 112, "unit": "nM"}
    ]},
    {"smiles": "CC(C)(CNC(=O)C(F)(F)F)C(c1ccccc1)c1ccn2c(-c3ccccc3)ncc2c1", "note": "(stereo not shown) [Example 2, N-(2,2-Dimethyl-3-phenyl-3-(3-phenylH-imidazo[1,5-a]pyridin-7-yl)propyl)-2,2,2-trifluoroacetamide]", "values": [
      {"measurement": "Ki", "setting": "[1]", "result": 16.5, "unit": "nM"}
    ]},
    {"smiles": "CCOC(=O)NCC(C)(C)C(c1ccccc1)c1ccn2c(-c3ccccc3)ncc2c1", "note": "(stereo not shown) [Example 3, Ethyl 2,2-dimethyl-3-phenyl-3-(3-phenylH-imidazo[1,5-a]pyridin-7-yl)propylcarbamate]", "values": [
      {"measurement": "Ki", "setting": "[1]", "result": 27.4, "unit": "nM"}
    ]},
    {"smiles": "CC(C)(C(=O)Nc1nccs1)C(c1ccccc1)c1ccc2cncn2c1", "note": "(stereo not shown) [Example 4, 3-(H-Imidazo[1,5-a]pyridin-6-yl)-2,2-dimethyl-3-phenyl-N-(thiazol-2-yl)propanamide]", "values": [
      {"measurement": "Ki", "setting": "[1]", "result": 13, "unit": "nM"}
    ]},
    {"smiles": "CC(C)(C(=O)Nc1nccs1)C(c1ccccc1)c1ccc2c(-c3ccc(F)cc3)ncn2c1", "note": "(stereo not shown) [Example 5, 3-(1-(4-Fluorophenyl)H-imidazo[1,5-a]pyridin-6-yl)-2,2-dimethyl-3-phenyl-N-(thiazol-2-yl)propanamide]", "values": [
      {"measurement": "AP-1 Max % inh (Cellular Transrepression Assay)", "setting": "AP-1", "result": 71.08, "unit": "%"},
      {"measurement": "EC50", "setting": "AP-1", "result": 34.1, "unit": "nM"}
    ]},
    {"smiles": "CC(C)(C(=O)Nc1nccs1)C(c1ccccc1)c1ccc2c(Br)ncn2c1", "note": "(stereo not shown) [Example 6, 3-(1-BromoH-imidazo[1,5-a]pyridin-6-yl)-2,2-dimethyl-3-phenyl-N-(thiazol-2-yl)propanamide]", "values": [
      {"measurement": "Ki", "setting": "[1]", "result": 30.2, "unit": "nM"}
    ]},
    {"smiles": "CC(C)(C(=O)Nc1nccs1)C(c1ccccc1)c1ccc2c(-c3cccc(C#N)c3)ncn2c1", "note": "(stereo not shown) [Example 7, 3-(1-(3-Cyanophenyl)H-imidazo[1,5-a]pyridin-6-yl)-2,2-dimethyl-3-phenyl-N-(thiazol-2-yl)propanamide]", "values": [
      {"measurement": "Ki", "setting": "[1]", "result": 17, "unit": "nM"}
    ]},
    {"smiles": "CC(C)(C(=O)Nc1nccs1)C(c1ccccc1)c1ccc2nncn2c1", "note": "(stereo not shown) [Example 8, 3-([1,2,4]-Triazolo[4,3-a]pyridin-6-yl)-2,2-dimethyl-3-phenyl-N-(thiazol-2-yl)propanamide]", "values": [
      {"measurement": "Ki", "setting": "[1]", "result": 169, "unit": "nM"}
    ]},
    {"smiles": "CC(C)(C(=O)Nc1nccs1)C(c1ccccc1)c1ccn2c(-c3ccccc3)ncc2c1", "note": "(stereo not shown) [Example 9]", "values": [
      {"measurement": "AP-1 Max % inh (Cellular Transrepression Assay)", "setting": "AP-1", "result": 67.35, "unit": "%"},
      {"measurement": "EC50", "setting": "AP-1", "result": 10.1, "unit": "nM"}
    ]},
    {"smiles": "CC(C)(C(=O)NC1CC1)C(c1ccccc1)c1ccn2c(-c3ccccc3)ncc2c1", "note": "(stereo not shown) [Example 10]", "values": [
      {"measurement": "Ki", "setting": "[1]", "result": 7.3, "unit": "nM"}
    ]},
    {"smiles": "CC(C)(C(=O)Nc1nncs1)C(c1ccccc1)c1ccn2cncc2c1", "note": "(stereo not shown) [Example 11]", "values": [
      {"measurement": "Ki", "setting": "[1]", "result": 27.1, "unit": "nM"}
    ]},
    {"smiles": "CC(C)(C(=O)Nc1nccs1)C(c1ccccc1)c1ccn2cncc2c1", "note": "(stereo not shown) [Example 12]", "values": [
      {"measurement": "Ki", "setting": "[1]", "result": 17.7, "unit": "nM"}
    ]},
    {"smiles": "CC(C)(C(=O)Nc1nncs1)C(c1ccccc1)c1ccc2cncn2c1", "note": "(stereo not shown) [Example 13]", "values": [
      {"measurement": "Ki", "setting": "[1]", "result": 19.5, "unit": "nM"}
    ]},
    {"smiles": "CC(C)(C(=O)Nc1nncs1)C(c1ccccc1)c1ccc2c(-c3ccc(F)cc3)ncn2c1", "note": "(stereo not shown) [Example 14]", "values": [
      {"measurement": "AP-1 Max % inh (Cellular Transrepression Assay)", "setting": "AP-1", "result": 55.80, "unit": "%"},
      {"measurement": "EC50", "setting": "AP-1", "result": 43.6, "unit": "nM"}
    ]},
    {"smiles": "CC(C)(C(=O)Nc1nncs1)C(c1ccccc1)c1ccc2c(-c3cccc(C#N)c3)ncn2c1", "note": "(stereo not shown) [Example 15]", "values": [
      {"measurement": "Ki", "setting": "[1]", "result": 22.6, "unit": "nM"}
    ]},
    {"smiles": "CC(C)(C(=O)Nc1nccs1)C(c1ccccc1)c1ccc2c(-c3ccc(C#N)cc3)ncn2c1", "note": "(stereo not shown) [Example 16]", "values": [
      {"measurement": "Ki", "setting": "[1]", "result": 26.2, "unit": "nM"}
    ]},
    {"smiles": "CC(C)(C(=O)Nc1nccs1)C(c1ccccc1)c1ccc2c(-c3ccc(F)cc3F)ncn2c1", "note": "(stereo not shown) [Example 18]", "values": [
      {"measurement": "AP-1 Max % inh (Cellular Transrepression Assay)", "setting": "AP-1", "result": 55.81, "unit": "%"},
      {"measurement": "EC50", "setting": "AP-1", "result": 13, "unit": "nM"}
    ]},
    {"smiles": "CC(C)(C(=O)Nc1nncs1)C(c1ccccc1)c1ccc2c(-c3ccc(F)cc3F)ncn2c1", "note": "(stereo not shown) [Example 19]", "values": [
      {"measurement": "AP-1 Max % inh (Cellular Transrepression Assay)", "setting": "AP-1", "result": 45.65, "unit": "%"},
      {"measurement": "EC50", "setting": "AP-1", "result": 16, "unit": "nM"}
    ]},
    {"smiles": "CC(C)(C(=O)Nc1nccs1)C(c1ccccc1)c1ccc2c(-c3ccc(F)c(Cl)c3)ncn2c1", "note": "(stereo not shown) [Example 20]", "values": [
      {"measurement": "Ki", "setting": "[1]", "result": 65.9, "unit": "nM"}
    ]},
    {"smiles": "CC(C)(C(=O)Nc1nncs1)C(c1ccccc1)c1ccc2c(-c3ccc(F)c(Cl)c3)ncn2c1", "note": "(stereo not shown) [Example 21]", "values": [
      {"measurement": "Ki", "setting": "[1]", "result": 46.6, "unit": "nM"}
    ]},
    {"smiles": "CC(C)(C(=O)Nc1nncs1)C(c1ccccc1)c1ccc2c(-c3cccc(CO)c3)ncn2c1", "note": "(stereo not shown) [Example 22]", "values": [
      {"measurement": "Ki", "setting": "[1]", "result": 12.2, "unit": "nM"}
    ]},
    {"smiles": "Cc1cscc1-c1ncn2cc(C(c3ccccc3)C(C)(C)C(=O)Nc3nncs3)ccc12", "note": "(stereo not shown) [Example 23]", "values": [
      {"measurement": "Ki", "setting": "[1]", "result": 36, "unit": "nM"}
    ]},
    {"smiles": "CC(C)(C(=O)Nc1nncs1)C(c1ccccc1)c1ccc2nncn2c1", "note": "(stereo not shown) [Example 24]", "values": [
      {"measurement": "Ki", "setting": "[1]", "result": 327, "unit": "nM"}
    ]},
    {"smiles": "Cc1nnc2ccc(C(c3ccccc3)C(C)(C)C(=O)Nc3nccs3)cn12", "note": "(stereo not shown) [Example 25]", "values": [
      {"measurement": "Ki", "setting": "[1]", "result": 2360, "unit": "nM"}
    ]},
    {"smiles": "Cc1nnc2ccc(C(c3ccccc3)C(C)(C)C(=O)Nc3nncs3)cn12", "note": "(stereo not shown) [Example 26]", "values": [
      {"measurement": "Ki", "setting": "[1]", "result": 5450, "unit": "nM"}
    ]}
  ]
}
